Assay results from US4808621A, “Trans-6-[2-(N-heteroaryl-3,5-disubstituted)pyrazol-4-yl)-ethyl]- or ethenyl]tetrahydro-4-hydroxypyran-2-one inhibitors of cholesterol biosynthesis” (Warner-Lambert Company, priority 1987, dated 1989).

Experiments:
HMG-CoA reductase = biological target: T1, HMG-CoA reductase (Rattus norvegicus, UniProt P51639); assay: COR screen: conversion of 14C-HMG-CoA to 14C-mevalonate by purified HMG-CoA reductase; assay type: biochemical; conditions: purified enzyme preparation of HMG-CoA reductase, 14C-HMG-CoA converted to 14C-mevalonate
T1 sequence (P51639 1-887): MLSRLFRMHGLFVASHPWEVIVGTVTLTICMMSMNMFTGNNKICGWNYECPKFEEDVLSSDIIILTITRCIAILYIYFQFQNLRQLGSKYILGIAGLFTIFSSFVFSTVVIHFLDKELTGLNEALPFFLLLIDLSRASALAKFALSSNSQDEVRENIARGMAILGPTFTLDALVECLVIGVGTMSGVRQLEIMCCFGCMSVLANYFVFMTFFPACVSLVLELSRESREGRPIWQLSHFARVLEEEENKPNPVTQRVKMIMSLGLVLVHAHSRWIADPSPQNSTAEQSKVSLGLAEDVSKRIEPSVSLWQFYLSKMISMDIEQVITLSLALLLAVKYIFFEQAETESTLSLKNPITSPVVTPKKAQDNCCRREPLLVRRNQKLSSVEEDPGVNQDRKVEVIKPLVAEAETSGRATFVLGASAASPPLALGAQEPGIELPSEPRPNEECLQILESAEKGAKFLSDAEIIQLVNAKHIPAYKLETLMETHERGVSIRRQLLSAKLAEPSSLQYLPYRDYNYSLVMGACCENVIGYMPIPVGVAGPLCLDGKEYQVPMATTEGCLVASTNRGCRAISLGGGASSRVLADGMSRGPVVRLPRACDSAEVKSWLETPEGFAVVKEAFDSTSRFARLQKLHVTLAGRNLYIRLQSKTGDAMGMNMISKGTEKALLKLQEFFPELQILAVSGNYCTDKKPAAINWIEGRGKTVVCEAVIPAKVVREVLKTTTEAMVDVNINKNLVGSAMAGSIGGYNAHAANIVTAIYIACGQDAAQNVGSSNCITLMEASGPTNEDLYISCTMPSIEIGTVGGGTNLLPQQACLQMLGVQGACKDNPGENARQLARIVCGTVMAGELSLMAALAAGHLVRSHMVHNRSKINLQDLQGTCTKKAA
Experimental: A second method (designated COR screen) employed the procedure detailed by T. Kita, et al., J. Clin. Invest., (1980), 66: 1094-1100. In this method, the amount of ^14 C-HMG-CoA converted to ^14 C-mevalonate in the presence of a purified enzyme preparation of HMG-CoA reductase was measured. The micromolar concentration of compound required for 50% inhibition of cholesterol synthesis was measured and recorded as an IC50 value.

[1] = system: sterol synthesis by rat liver homogenate; assay: CSI screen: inhibition of incorporation of 14C-acetate into nonsaponifiable lipid by rat liver homogenate (sterol synthesis); assay type: biochemical; conditions: 50% inhibition of sterol synthesis over a one-hour period, liver homogenate of cholestyramine-fed rats
Experimental: The ability of compounds of the present invention to inhibit the biosynthesis of cholesterol was measured by two methods. A first method (designated CSI screen) utilized the procedure described by R. E. Dugan et al., Archiv. Biochem. Biophys., (1972), 152, 21-27. In this method, the level of HMG-CoA enzyme activity in standard laboratory rats is increased by feeding the rats a chow diet containing 5% cholestyramine for four days, after which the rats are sacrificed.
The rat livers are homogenized, and the incorporation of ^14 C-acetate into nonsaponifiable lipid by the rat liver homogenate is measured. The micromolar concentration of compound required for 50% inhibition of sterol synthesis over a one-hour period is measured, and expressed as an IC50 value.

SMILES | IC50 (HMG-CoA reductase) | IC50 [1]
CC(C)c1nn(-c2ccccn2)c(-c2ccc(F)cc2)c1CC[C@H]1C[C@H](O)CC(=O)O1 (relative stereo) [Compound 1, trans-6-[2-[5-(4-fluorophenyl)-3-(1-methylethyl)-1-(2-pyridinyl)-1H-pyrazol-4-yl]ethyl]tetrahydro-4-hydroxy-2H-pyran-2-one] | 110 nM | 39 nM
CC[C@H](C)C(=O)O[C@H]1CCC=C2C=C[C@H](C)[C@H](CC[C@@H]3C[C@@H](O)CC(=O)O3)[C@H]21 [Compactin, reference compound] |  | 26 nM
